By melting point is commonly meant the temperature of the solid-liquid transition. For orientation: IC50 means the concentration that gives 50% inhibition.

Where two headings read alike, the source gives them in different places. Bounds are passed on as bounds.

In data set [1] the target is T1, butyrylcholine esterase (BuChE) (Mus musculus, UniProt Q03311).
T1 construct: brain homogenate and serum of mouse were used as choline esterase enzyme sources; from tissue; host or cells: mouse serum
The data set is described as follows: In vitro assay for choline esterase inhibition (Ellman method), butyrylthiocholine substrate, mouse serum. The class given is biochemical. The following applies: for Ratio AChE/BuChE: selectivity for BuChE inhibition: IC50 (AchE)/IC50 (BuChE); for selectivity to butyrylcholinesterase (BuChE versus AChE inhibitory activity), in words: summary of Tables 1-3. An outline of the steps: (§1)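 Enzyme sources were mouse brain homogenate for AChE (acetylthiocholine substrate) and mouse serum for BuChE (butyrylthiocholine substrate). Compounds were diluted in DMSO and incubated with substrate and DTNB, and the thiocholine–DTNB product was read at 415 nm (Ellman method). Selectivity was taken as IC50(AChE)/IC50(BuChE).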

Data set [2] deals with T2, acetylcholine esterase (AChE) (Mus musculus, UniProt P21836).
T2 construct: brain homogenate and serum of mouse were used as choline esterase enzyme sources; from tissue; host or cells: mouse brain homogenate
T2 sequence (P21836 32-614): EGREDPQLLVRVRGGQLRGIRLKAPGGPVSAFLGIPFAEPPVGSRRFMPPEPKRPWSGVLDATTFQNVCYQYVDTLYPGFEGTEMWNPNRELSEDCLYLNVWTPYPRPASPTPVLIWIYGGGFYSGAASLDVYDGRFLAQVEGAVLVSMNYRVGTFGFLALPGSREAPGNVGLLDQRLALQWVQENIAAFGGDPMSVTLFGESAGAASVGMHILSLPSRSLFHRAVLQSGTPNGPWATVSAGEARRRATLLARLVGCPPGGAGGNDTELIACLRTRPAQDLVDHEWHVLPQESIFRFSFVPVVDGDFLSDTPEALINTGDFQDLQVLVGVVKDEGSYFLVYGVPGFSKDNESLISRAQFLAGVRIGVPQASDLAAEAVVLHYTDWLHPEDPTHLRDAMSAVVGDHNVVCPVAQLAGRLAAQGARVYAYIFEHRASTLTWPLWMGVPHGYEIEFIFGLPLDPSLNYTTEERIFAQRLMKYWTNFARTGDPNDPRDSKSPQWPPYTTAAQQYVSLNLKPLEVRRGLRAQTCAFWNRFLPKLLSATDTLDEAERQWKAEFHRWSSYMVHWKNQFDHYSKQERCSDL
Put plainly: In vitro assay for choline esterase inhibition (Ellman method), acetylthiocholine substrate, mouse brain homogenate. It counts as biochemical. An outline of the steps:
as §1

[3] abbreviates: mouse serum, butyrylthiocholine, absorbance at 415 nm, read-out: BuChE inhibitory activity IC50.
The mark [4] stands for this setting: mouse brain homogenate, acetylthiocholine, absorbance at 415 nm, read-out: AChE inhibitory activity IC50.

T1 sequence (Q03311 30-603): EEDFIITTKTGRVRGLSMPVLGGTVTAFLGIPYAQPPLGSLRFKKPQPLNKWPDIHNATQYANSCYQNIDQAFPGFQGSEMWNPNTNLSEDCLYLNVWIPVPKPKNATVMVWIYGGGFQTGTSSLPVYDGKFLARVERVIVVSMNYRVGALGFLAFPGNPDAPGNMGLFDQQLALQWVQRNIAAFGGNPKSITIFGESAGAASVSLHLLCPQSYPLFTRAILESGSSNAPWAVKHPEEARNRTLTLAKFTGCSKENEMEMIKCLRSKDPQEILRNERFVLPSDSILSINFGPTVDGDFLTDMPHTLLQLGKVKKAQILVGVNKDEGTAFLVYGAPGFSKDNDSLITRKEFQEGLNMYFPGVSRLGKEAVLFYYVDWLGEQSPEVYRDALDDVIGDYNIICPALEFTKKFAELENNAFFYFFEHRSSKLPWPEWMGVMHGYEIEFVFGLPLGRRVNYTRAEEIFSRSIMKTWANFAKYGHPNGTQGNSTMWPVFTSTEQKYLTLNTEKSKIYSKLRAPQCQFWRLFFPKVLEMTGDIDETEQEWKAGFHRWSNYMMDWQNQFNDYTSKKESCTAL

`CCCN(CCC)C(=O)C1Cc2cc(OC(=O)Nc3ccc(C(C)C)cc3)ccc2N1Cc1ccccc1` (stereo not shown) had a melting point of 62 to 66 °C.

In turn, `CC(C)c1ccc(NC(=O)Oc2ccc3c(c2)CCN3Cc2cccc3ncccc23)cc1` registered a melting point of 195 to 199 °C.

As for `COc1ccc(NC(=O)Oc2ccc3c(c2)CCN3)cc1`, the melting point is 220 to 224 °C.

`O=C(NCC1CCCCC1)Oc1ccc2c(c1)CCN2` came in with a melting point of 129 to 133 °C.

`COC(=O)c1ccc(CN2CCc3cc(OC(=O)Nc4ccc(C(C)C)cc4)ccc32)cc1` showed a melting point of 149 to 153 °C.

The molecule `O=C(Nc1ccncc1)Oc1ccc2c(c1)CCN2Cc1ccccc1` returned a melting point of 132 to 136 °C.

In the case of `O=C(Nc1ccc2ccccc2c1)Oc1ccc2c(c1)CCN2Cc1ccccc1`, the melting point lay in the range of 161 to 167 °C.

`O=C(Nc1ccc([N+](=O)[O-])cc1)Oc1ccc2c(c1)CCN2Cc1ccccc1`: the melting point was in the range of 225 to 229 °C.

As to `O=C(Nc1ccc(C2CCCCC2)cc1)Oc1ccc2c(c1)CCN2Cc1ccccc1`, the melting point lay within 171 to 174 °C.

For `COc1ccc(NC(=O)Oc2ccc3c(c2)CCN3)cc1OC`, the melting point is 140 to 144 °C.

Turning to `O=C(Nc1ccc(-c2ccccc2)cc1)Oc1ccc2c(c1)CCN2Cc1ccccc1`, the melting point is 175 to 178 °C.

Turning to `CC(C)c1ccc(NC(=O)Oc2ccc3c(c2)CCN3Cc2ccc(O)c(Cl)c2)cc1`, the melting point lay in the range of 170 to 174 °C.

With `CC(C)c1ccc(NC(=O)Oc2ccc3c(c2)CCN3Cc2ccc3ccccc3c2)cc1`, the melting point is 136 to 140 °C.

`CC(C)c1ccc(NC(=O)Oc2ccc3c(c2)CCN3Cc2ccco2)cc1` yielded a melting point of 168 to 171 °C.

Take `CC(C)c1ccc(NC(=O)Oc2ccc3c(c2)CCN3Cc2cc(N(C)C)c3ccccc3c2)cc1`: the melting point fell in the range of 75 to 80 °C.

The molecule `CC(C)c1ccc(NC(=O)Oc2ccc3c(c2)CCN3Cc2ccc3ccccc3n2)cc1` showed a melting point of 150 to 152 °C.

`O=C(Nc1ccccc1)Oc1ccc2c(c1)CCN2Cc1ccccc1` registered a melting point of 105 to 112 °C.

Molecule `CNC(=O)Oc1ccc2c(c1)CCN2` returned a melting point of 109 to 112 °C.

As to `CC(C)c1ccc(NC(=O)Oc2ccc3c(c2)CCN3CCc2ccccc2)cc1` [Example 3, 1-phenethylindolin-5-yl 4-isopropylphenylcarbamate], in data set [1], the IC50 was determined as 1.2 µM and the “Ratio AChE/BuChE” value is on record as over 83. The molecule further displayed an IC50 in data set [2] of over 100 µM.

Turning to `O=C(NC1CCCCCCC1)Oc1ccc2c(c1)CCN2Cc1ccccc1` [Example 45, 1-benzylindolin-5-yl cyclooctylcarbamate], in data set [1], half-maximal inhibition (IC50) required 0.021 µM; the “Ratio AChE/BuChE” value is given as over 4800; the “selectivity to butyrylcholinesterase (BuChE versus AChE inhibitory activity), in words” value is “much higher”. Also, the IC50 in data set [2] is over 100 µM.

As for `COC1C=CC(CNC(=O)Oc2ccc3c(c2)CCN3Cc2ccccc2)(OC)O1` (stereo not shown) [Example 122, 1-benzylindolin-5-yl (2,5-dihydro-2,5-dimethoxyfuran-2-yl)methylcarbamate], in data set [1], the IC50 is 0.48 µM and the “Ratio AChE/BuChE” value is over 210. The same molecule yielded an IC50 in data set [2] of over 100 µM.

As for `O=C(NCCc1cccnc1)Oc1ccc2c(c1)CCN2Cc1ccccc1` [Example 120, 1-benzylindolin-5-yl 2-(3-pyridyl)ethylcarbamate], the IC50 in data set [1] (setting [3]) came out at 0.024 µM. Further, in data set [1], the “Ratio AChE/BuChE” value is 350 and the “selectivity to butyrylcholinesterase (BuChE versus AChE inhibitory activity), in words” value is recorded as “much higher”. In addition, the IC50 in data set [2] (setting [4]) amounted to 8.5 µM.

`O=C(NC1CC1)Oc1ccc2c(c1)CCN2Cc1ccccc1` [Example 41, 1-benzylindolin-5-yl cyclopropylcarbamate]: the values for the IC50 in data set [1] (setting [3]) and in data set [2] (setting [4]) were 0.19 µM and 36 µM, respectively. Further, in data set [1], the “Ratio AChE/BuChE” value was 190.

For `CN(CC1CCOCC1)C(=O)Oc1ccc2c(c1)C(C)(C)CN2Cc1ccccn1` [Example 218, N-methyl-O-[1-(2-pyridylmethyl)-3,3-dimethylindolin-5-yl]-N-(4-tetrahydropyranylmethyl)carbamate], in data set [1], the IC50 amounted to 0.00066 µM; the “Ratio AChE/BuChE” value is on record as 13000; the “selectivity to butyrylcholinesterase (BuChE versus AChE inhibitory activity), in words” value is recorded as “much higher”. In data set [2], inhibition was half-maximal at 8.5 µM (IC50).

With `CSCCCNC(=O)Oc1ccc2c(c1)CCN2Cc1ccccc1` [Example 49, 1-benzylindolin-5-yl 3-methylthiopropylcarbamate], in data set [1] (setting [3]), the IC50 is 0.012 µM. In data set [1], the “Ratio AChE/BuChE” value amounted to 530 and the “selectivity to butyrylcholinesterase (BuChE versus AChE inhibitory activity), in words” value is reported as “much higher”. Also, in data set [2] (setting [4]), the IC50 turned out to be 6.3 µM.

`COc1cc(CN2CCc3cc(OC(=O)Nc4ccc(C(C)C)cc4)ccc32)ccc1N(C)C` came in with a melting point of 152 to 153 °C.

Take `CC(C)c1ccc(NC(=O)Oc2ccc3c(c2)C(C)(C)CN3Cc2ccccc2)cc1` [Example 145, 1-benzyl-3,3-dimethylindolin-5-yl-4-isopropylphenylcarbamate]: the IC50 in data set [1] (setting [3]) is 0.28 µM; in data set [2] (setting [4]), over 100 µM. Besides, in data set [1], the “Ratio AChE/BuChE” value was over 360.

Regarding `CN(CC1CCOCC1)C(=O)Oc1ccc2c(c1)C(C)(C)CN2Cc1ccncc1` [Example 220, N-methyl-O-[1-(4-pyridylmethyl)-3,3-dimethylindolin-5-yl]-N-(4-tetrahydropyranylmethyl)carbamate], in data set [1], the IC50 turned out to be 0.0019 µM; the “Ratio AChE/BuChE” value came out at 11000; the “selectivity to butyrylcholinesterase (BuChE versus AChE inhibitory activity), in words” value is given as “much higher”. In data set [2], this molecule displayed an IC50 of 21 µM.

`CC(C)c1ccc(NC(=O)Oc2ccc3c(c2)C(C)CN3Cc2ccccc2)cc1` (stereo not shown) [Example 146, 1-benzyl-3-methylindolin-5-yl-4-isopropylphenylcarbamate]: the 50% inhibitory concentration (IC50) is 0.18 µM in data set [1] (setting [3]) and over 100 µM in data set [2] (setting [4]). Moreover, the “Ratio AChE/BuChE” value in data set [1] is over 560.

Turning to `O=C(NCCc1ccncc1)Oc1ccc2c(c1)CCN2Cc1ccccc1` [Example 119, 1-benzylindolin-5-yl 2-(4-pyridyl)ethylcarbamate], the IC50 in data set [1] (setting [3]) is 0.059 µM. Also, in data set [1], the “Ratio AChE/BuChE” value was 240 and the “selectivity to butyrylcholinesterase (BuChE versus AChE inhibitory activity), in words” value is “much higher”. Also, the IC50 in data set [2] (setting [4]) was determined as 14 µM.

In turn, `O=C(Nc1ccc(Oc2ccccc2)cc1)Oc1ccc2c(c1)CCN2Cc1ccccc1` gave a melting point of 155 to 160 °C.

Take `CC(C)c1ccc(NC(=O)Oc2ccc3c(c2)CCN3Cc2ccccc2)cc1` [Example 2, 1-benzylindolin-5-yl 4-isopropylphenylcarbamate]: in data set [1], the concentration for half-maximal inhibition (IC50) worked out at 0.57 µM and the “Ratio AChE/BuChE” value was over 180. For the same molecule, the IC50 in data set [2] is over 100 µM.

Turning to `Cc1ccc(CCNC(=O)Oc2ccc3c(c2)CCN3Cc2ccccc2)c(C)c1` [Example 116, 1-benzylindolin-5-yl 2,4-dimethylphenethylcarbamate], in data set [1], half-maximal inhibition (IC50) required 0.045 µM; the “Ratio AChE/BuChE” value is reported as over 2200; the “selectivity to butyrylcholinesterase (BuChE versus AChE inhibitory activity), in words” value is given as “much higher”. Besides, in data set [2], the IC50 was over 100 µM.

With `C=C(C)CNC(=O)Oc1ccc2c(c1)CCN2Cc1ccccc1` [Example 53, 1-benzylindolin-5-yl 2-methylallylcarbamate], the half-maximal inhibitory concentration (IC50) in data set [1] (setting [3]) is 0.028 µM; in data set [2] (setting [4]), 46 µM. Also, the “Ratio AChE/BuChE” value in data set [1] is recorded as 1600. The “selectivity to butyrylcholinesterase (BuChE versus AChE inhibitory activity), in words” value in data set [1] is recorded as “much higher”.

With `O=C(NCCSCc1ccco1)Oc1ccc2c(c1)CCN2Cc1ccccc1` [Example 54, 1-benzylindolin-5-yl 2-(furfurylthio)ethylcarbamate], in data set [1], the midpoint of inhibition, the IC50, lay at 0.015 µM; the “Ratio AChE/BuChE” value is reported as over 6700; the “selectivity to butyrylcholinesterase (BuChE versus AChE inhibitory activity), in words” value is on record as “much higher”. The IC50 in data set [2] is over 100 µM.

In the case of `O=C(NCC12CC3CC(CC(C3)C1)C2)Oc1ccc2c(c1)CCN2Cc1ccccc1` [Example 47, 1-benzylindolin-5-yl 1-adamantanemethylcarbamate], in data set [1], the midpoint of inhibition, the IC50, lay at 0.082 µM; the “Ratio AChE/BuChE” value was over 1200; the “selectivity to butyrylcholinesterase (BuChE versus AChE inhibitory activity), in words” value is given as “much higher”. Further, the IC50 in data set [2] was over 100 µM.

`O=C(NCC1CCCCC1)Oc1ccc2c(c1)CCN2Cc1ccccc1` [Example 34, 1-benzylindolin-5-yl cyclohexylmethylcarbamate]: in data set [1], the IC50 stood at 0.003 µM; the “Ratio AChE/BuChE” value is on record as over 33000; the “selectivity to butyrylcholinesterase (BuChE versus AChE inhibitory activity), in words” value is recorded as “much higher”. Also, the IC50 in data set [2] is over 100 µM.

As for `Cc1ccc(NC(=O)Oc2ccc3c(c2)CCN3Cc2ccccc2)cc1` [Example 55, 1-benzylindolin-5-yl-4-methylphenylcarbamate], the IC50 in data set [1] (setting [3]) was 0.29 µM; in data set [2] (read-out: AChE inhibitory activity IC50), over 100 µM. Also, the “Ratio AChE/BuChE” value in data set [1] is reported as over 340.

The record behind these values is patent US8686024B2, “Indoline derivatives” (priority 2009, dated 2014).
